The values below come from patent US4182769A, “Anti-inflammatory 1-substituted-4,5-diaryl-2-(substituted-thio) imidazoles and their corresponding sulfoxides and sulfones” (E. I. Du Pont de Nemours and Company, priority 1978, dated 1980).

One assay relates to adjuvant-induced arthritis in rats. Kind of assay: Established Adjuvant-Induced Arthritis in Rats (A.A.). The format is in vivo, Charles River Lewis male rats. The note with it: @ 3 mg/Kg, oral, rats.
On to `Cn1c(S(=O)(=O)C(F)(F)F)nc(-c2ccc(F)cc2)c1-c1ccc(F)cc1` [Example 29], for which the “% paw volume reduction from control” value is listed as 33%.

The assay is the same for the next values; noted with them: @ 7 mg/Kg, oral, rats.
As for `CN(C)CCn1c(S(=O)(=O)C(F)(F)C(F)F)nc(-c2ccc(F)cc2)c1-c1ccc(F)cc1` [Example 27], the “% paw volume reduction from control” value came to 76%.

Still in this assay, the particulars now being: @ 9 mg/Kg, oral, rats.
Consider `CCCn1c(S(=O)(=O)C(F)(F)C(F)F)nc(-c2ccc(F)cc2)c1-c1ccc(F)cc1` [Example 24], for which the “% paw volume reduction from control” value was 33%.

Still in this assay, the particulars now being: @ 10 mg/Kg, oral, rats.
`FC(F)(F)Sc1nc(-c2ccccc2)c(-c2ccccc2)n1COCc1ccccc1` [Example 1, 1-Benzyloxymethyl-4,5-diphenyl-2-trifluoromethylthioimidazole]: the “% paw volume reduction from control” value is listed as 34%.

The assay is the same for the next values; noted with them: @ 15 mg/Kg, oral, rats.
On to `CN(C)C(=S)n1c(SC(F)(F)C(F)F)nc(-c2ccccc2)c1-c1ccccc1` [Example 9, 1-(N,N-Dimethylthiocarbamoyl)-4,5-diphenyl-2-(1,1,2,2-tetrafluoroethylthio)imidazole], for which the “% paw volume reduction from control” value is recorded as 53%.

Staying with this assay, now noted: @ 20 mg/Kg, oral, rats.
Take `COc1ccc(-c2nc(S(=O)(=O)C(F)(F)CF)n(C)c2-c2ccc(OC)cc2)cc1` [Example 31]: the “% paw volume reduction from control” value was found to be 36%.

Still in this assay, the particulars now being: @ 25 mg/Kg, oral, rats.
In the case of `O=C(OCc1ccccc1)n1c(SC(F)(F)C(F)F)nc(-c2ccccc2)c1-c1ccccc1` [Example 12, 1-Benzyloxycarbonyl-4,5-diphenyl-2-(1,1,2,2-tetrafluoroethylthio)imidazole], the “% paw volume reduction from control” value was found to be 69%.

The assay is the same for the next values; noted with them: Rattus norvegicus, po, read-out: A.A. ED50 % (ED50% decrease from control paw volume).
With `CC(=O)Oc1ccccc1C(=O)O` [Aspirin, reference compound], the 50% effective dose (ED50) is 305 mg/kg.

`COc1ccc2c(c1)c(CC(=O)O)c(C)n2C(=O)c1ccc(Cl)cc1` [Indomethacin, reference compound]: the ED50 worked out at 0.3 mg/kg.

The assay is the same for the next values; noted with them: Rattus norvegicus; oral, 7 daily doses, rats; determined as % paw volume reduction from control (uninjected, left hind paw); read-out: A.A. ED50 % (ED50% decrease from control paw volume).
In the case of `FC(F)(F)Sc1nc(-c2ccccc2)c(-c2ccccc2)n1COCc1ccccc1` [Example 1, 1-Benzyloxymethyl-4,5-diphenyl-2-trifluoromethylthioimidazole], the ED50 is over 10 mg/kg.

Take `FC(F)C(F)(F)Sc1nc(-c2ccccc2)c(-c2ccccc2)n1COCc1ccccc1` [Example 2, 1-Benzyloxymethyl-4,5-diphenyl-2-(1,1,2,2-tetrafluoroethylthio)imidazole]: the ED50 came out at 3.7 mg/kg.

In the case of `CCOC(=O)n1c(SC(F)(F)C(F)F)nc(-c2ccccc2)c1-c1ccccc1` [Example 3, 4,5-Diphenyl-1-ethoxycarbonyl-2-(1,1,2,2-tetrafluoroethylthio)imidazole], the ED50 is 2.3 mg/kg.

In the case of `O=S(=O)(c1nc(-c2ccccc2)c(-c2ccccc2)n1COCc1ccccc1)C(F)(F)C(F)F` [Example 4, 1-Benzyloxymethyl-4,5-diphenyl-2-(1,1,2,2-tetrafluoroethylsulfonyl)imidazole], the ED50 came to 1.3 mg/kg.

For the molecule `FC(F)(F)Sc1nc(-c2ccccc2)c(-c2ccccc2)n1C1CCCCO1` (stereo not drawn) [Example 5, 4,5-Diphenyl-1-(2-tetrahydropyranyl)-2-trifluoromethylthiomidazole], the median effective dose (ED50) was 18 mg/kg.

On to `CCOC(=O)n1c(SC(F)(F)C(F)F)nc(-c2ccc(F)cc2)c1-c1ccc(F)cc1` [Example 6, 1-Ethoxycarbonyl-4,5-bis(4-fluorophenyl)-2-(1,1,2,2-tetrafluoroethylthio)imidazole], for which the 50% effective dose (ED50) was 0.15 mg/kg.

As for `Cn1c(S(=O)(=O)C(F)(F)C(F)F)nc(-c2ccc(F)cc2)c1-c1ccc(F)cc1` [Example 8, 4,5-bis(4-Fluorophenyl)-1-methyl-2-(1,1,2,2-tetrafluoroethylsulfonyl)imidazole], the median effective dose (ED50) amounted to 1 mg/kg.

`CN(C)C(=S)n1c(SC(F)(F)C(F)F)nc(-c2ccccc2)c1-c1ccccc1` [Example 9, 1-(N,N-Dimethylthiocarbamoyl)-4,5-diphenyl-2-(1,1,2,2-tetrafluoroethylthio)imidazole]: the ED50 was under 15 mg/kg.

As for `CNC(=O)N(C)C(=O)n1c(SC(F)(F)C(F)F)nc(-c2ccccc2)c1-c1ccccc1` [Example 11, N-Methyl-N-(methylaminocarbonyl)-4,5-diphenyl-2-(1,1,2,2-tetrafluoroethylthio)imidazole-1-carboxamide], the median effective dose (ED50) turned out to be 1.8 mg/kg.

Consider `O=C(OCc1ccccc1)n1c(SC(F)(F)C(F)F)nc(-c2ccccc2)c1-c1ccccc1` [Example 12, 1-Benzyloxycarbonyl-4,5-diphenyl-2-(1,1,2,2-tetrafluoroethylthio)imidazole], for which the ED50 was under 25 mg/kg.

`CC(C)(C)C(=O)OCn1c(S(=O)(=O)C(F)(F)C(F)F)nc(-c2ccc(F)cc2)c1-c1ccc(F)cc1` [Example 13, 4,5-bis(4-Fluorophenyl)-1-(pivaloyloxymethyl)-2-(1,1,2,2-tetrafluoroethylsulfonyl)imidazole]: the median effective dose (ED50) is 1.2 mg/kg.

Consider `O=S(=O)(c1ccccc1)n1c(SC(F)(F)C(F)F)nc(-c2ccccc2)c1-c1ccccc1` [Example 14, 1-Benzenesulfonyl-4,5-diphenyl-2-(1,1,2,2-tetrafluoroethylthio)imidazole], for which the ED50 was about 35 mg/kg.

Consider `CC(=O)n1c(SC(F)(F)C(F)F)nc(-c2ccccc2)c1-c1ccccc1` [Example 15, 1-Acetyl-4,5-diphenyl-2-(1,1,2,2-tetrafluoroethylthio)imidazole], for which the ED50 was 0.9 mg/kg.

As for `FC(F)C(F)(F)Sc1nc(-c2ccccc2)c(-c2ccccc2)n1C1CCCO1` (stereo not drawn) [Example 16, 4,5-Diphenyl-2-(1,1,2,2-tetrafluoroethylthio)-1-(2-tetrahydrofuranyl)imidazole], the ED50 is 2.7 mg/kg.

In the case of `O=S(=O)(c1ccccc1)n1c(SC(F)(F)F)nc(-c2ccc(F)cc2)c1-c1ccc(F)cc1` [Example 17, 1-Benzenesulfonyl-4,5-bis(4-fluorophenyl)-2-(trifluoromethylthio)imidazole], the 50% effective dose (ED50) is 0.18 mg/kg.

In the case of `CC(C)n1c(SC(F)(F)C(F)F)nc(-c2ccc(F)cc2)c1-c1ccc(F)cc1` [Example 18, 4,5-bis(4-Fluorophenyl)-1-isopropyl-2-(1,1,2,2-tetrafluoroethylthio)imidazole], the 50% effective dose (ED50) was found to be 10 mg/kg.

Regarding `Cn1c(SC(F)(F)C(F)F)nc(-c2ccc(F)cc2)c1-c1ccc(F)cc1` [Example 19], the median effective dose (ED50) is 2.3 mg/kg.

`CCn1c(SC(F)(F)C(F)F)nc(-c2ccc(F)cc2)c1-c1ccc(F)cc1` [Example 20]: the median effective dose (ED50) was 3 mg/kg.

In the case of `CCCn1c(SC(F)(F)C(F)F)nc(-c2ccc(F)cc2)c1-c1ccc(F)cc1` [Example 21], the ED50 came out at 14 mg/kg.

As for `C=CCn1c(SC(F)(F)C(F)F)nc(-c2ccc(F)cc2)c1-c1ccc(F)cc1` [Example 22], the ED50 was found to be 1.3 mg/kg.

With `CCn1c(S(=O)(=O)C(F)(F)C(F)F)nc(-c2ccc(F)cc2)c1-c1ccc(F)cc1` [Example 23], the median effective dose (ED50) is 4.8 mg/kg.

Regarding `CCCn1c(S(=O)(=O)C(F)(F)C(F)F)nc(-c2ccc(F)cc2)c1-c1ccc(F)cc1` [Example 24], the median effective dose (ED50) is over 9 mg/kg.

For `CCCCn1c(S(=O)(=O)C(F)(F)C(F)F)nc(-c2ccc(F)cc2)c1-c1ccc(F)cc1` [Example 25], the ED50 was 5 mg/kg.

For the molecule `C=CCn1c(S(=O)(=O)C(F)(F)C(F)F)nc(-c2ccc(F)cc2)c1-c1ccc(F)cc1` [Example 26], the 50% effective dose (ED50) is 2 mg/kg.

Take `CN(C)CCn1c(S(=O)(=O)C(F)(F)C(F)F)nc(-c2ccc(F)cc2)c1-c1ccc(F)cc1` [Example 27]: the ED50 is under 7 mg/kg.

As for `Cn1c(SC(F)(F)F)nc(-c2ccc(F)cc2)c1-c1ccc(F)cc1` [Example 28], the ED50 amounted to 2.1 mg/kg.

In the case of `Cn1c(S(=O)(=O)C(F)(F)F)nc(-c2ccc(F)cc2)c1-c1ccc(F)cc1` [Example 29], the 50% effective dose (ED50) was over 3 mg/kg.

On to `COc1ccc(-c2nc(S(=O)(=O)C(F)(F)CF)n(C)c2-c2ccc(OC)cc2)cc1` [Example 31], for which the ED50 is over 20 mg/kg.

With `CS(=O)(=O)n1c(SC(F)(F)C(F)F)nc(-c2ccccc2)c1-c1ccccc1` [Example 32], the 50% effective dose (ED50) is about 21 mg/kg.

In the case of `O=C(c1ccccc1)n1c(SC(F)(F)C(F)F)nc(-c2ccccc2)c1-c1ccccc1` [Example 34], the 50% effective dose (ED50) came to 2.3 mg/kg.

For `CC(C)Cc1ccc(C(C)C(=O)O)cc1` (stereo not drawn) [Ibuprofen, reference compound], the ED50 was 100 mg/kg.

Turning to `CCCCC1C(=O)N(c2ccccc2)N(c2ccccc2)C1=O` [Phenylbutazone, reference compound], the 50% effective dose (ED50) worked out at 10 mg/kg.

The same assay, now with this note: oral, 7 daily doses, rats; determined as % paw volume reduction from control (uninjected, left hind paw).
“Mixture of 1-Ethoxycarbonyl-4-(4-fluorophenyl)-5-phenyl-2-(1,1,2,2-tetrafluoroethylthio)imidazole and 1-Ethoxycarbonyl-5-(4-fluorophenyl)-4-phenyl-2-(1,1,2,2-tetrafluoroethylthio)imidazole [Example 7]”: the “A.A. ED50 % (ED50% decrease from control paw volume)” value is 0.65 mg/kg.
